One series concerns glutathione (GSH). Description: Reactivity Profiling with Glutathione (GSH), half-life by HPLC. Particulars: 5 mM glutathione (GSH) in IMDM with 10% FBS.
The next series relates to MV4-11 cells. Description: MV4-11 Cell Cytotoxicity Assay (CellTiter-Blue, 72 h). In kind it is cell-based, human. The note with it: Homo sapiens, MV4-11; MV-4-11 cells. A digest of the protocol: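 Cells seeded 24 h before treatment, then exposed 72 h at 37° C, 5% CO2 to inhibitors in triplicate, top concentration 50 μM with 1:2 serial dilutions (0.5% DMSO vehicle). Viability read by CellTiter-Blue fluorescence at 560/590 nm after 1 h.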

Series [1] concerns normal human fibroblast (NHF) cells. Description: NHF Cell Cytotoxicity Assay (CellTiter-Blue, 72 h), off-target effects. The series is classed as cell-based. The note with it: Homo sapiens, Fibroblast; pooled NHF cells. In a few lines: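 Normal human fibroblasts (1×10^4/well, 10% FBS medium) were treated after 24 h with inhibitor at 0.097656-50 μM for 72 h at 37° C. Viability was read by CellTiter-Blue fluorescence (560/590 nm), normalized to DMSO control, and IC50 obtained from a variable-slope log(inhibitor)-response fit of four replicates.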

Molecules are shown by their SMILES.

The record followed here is patent US20230159445A1, “STAT INHIBITORY COMPOUNDS AND COMPOSITIONS” (JANPIX LIMITED, priority 2020, published 2023).

Description for glutathione (GSH): 3.5 μL of 5 mM stocking solution of the inhibitors in DMSO was added to 697.5 μL of Iscove's Modified Dulbecco's Medium (IMDM) supplemented with 10% FBS and antibiotic antimycotic solution, with 5 mM glutathione to afford a final concentration of 25 μM inhibitor with 0.5% DMSO. The solution was then immediately placed in the sample tray at 25° C. […] For each inhibitor, its peak is integrated at different time points and compared to the time zero injection in order to obtain a percentage remaining. Half-life is calculated according to a first order reaction kinetic taking into account those time points for which remaining percentage of inhibitor is above 40%, using the formula: t½=Ln(2)/k, where k is the slope of the linear plot of Ln[Inhibitor] vs time, according to the formula: Ln[A]=Ln[A]0−kt, where [A] is the value resulting from the integration at each time point, [A]0 the value at time zero, and t the time. For each inhibitor, both replicates are averaged and the resulting t½ reported.

Take `O=C(O)c1ccc(N(Cc2cc(C3CC3)cc(N3CCCC3)c2)C(=O)CN(Cc2c(F)cc(F)cc2F)S(=O)(=O)c2c(F)c(F)c(F)c(F)c2F)c(C2CC2)c1` [Compound 1199, 3-cyclopropyl-4-(N-(3-cyclopropyl-5-(pyrrolidin-1-yl)benzyl)-2-(N-(2,4,6-trifluorobenzyl)-(2,3,4,5,6-pentafluoro-phenyl)sulfonamido)acetamido)benzoic acid]: the half-life at 25 μM in the series on glutathione (GSH) lay within 9.23 to 1670 h. The IC50 in the series on MV4-11 cells was 0.01 to 316 nM; in series [1] it was 1 to 10000 nM.
In the same order, the values of `O=C(O)c1ccc(N(Cc2cc(C3CC3)cc(N3CCCC3)c2)C(=O)CN(Cc2ccc(F)cc2Cl)S(=O)(=O)c2c(F)c(F)c(F)c(F)c2F)c(C2CC2)c1` [Compound 1200, 4-(2-(N-(2-chloro-4-fluorobenzyl)-(2,3,4,5,6-pentafluorophenyl)sulfon-amido)-N-(3-cyclopropyl-5-(pyrrolidin-1-yl)benzyl)acetamido)-3-cyclopropylbenzoic acid] are 9.23 to 1670 h, 0.01 to 316 nM and 1 to 10000 nM.
In the same order, the values of `Cc1cc(C(=O)O)cc(C)c1N(Cc1cc(C2CC2)cc(C2CC2)c1)C(=O)CN(Cc1c(F)cc(F)cc1F)S(=O)(=O)c1c(F)c(F)c(F)c(F)c1F` [Compound 1203, 4-(N-(3,5-dicyclopropylbenzyl)-2-(N-(2,4,6-trifluorobenzyl)-(2,3,4,5,6-pentafluoro-phenyl)sulfonamido)acetamido)-3,5-dimethylbenzoic acid] are 4.12 to 9.23 h, 0.01 to 316 nM and 1 to 10000 nM.
In the same order, the values of `O=C(O)c1ccc(N(Cc2cc(C3CC3)cc(C3CC3)c2)C(=O)CN(Cc2cnccc2C(F)(F)F)S(=O)(=O)c2c(F)c(F)c(F)c(F)c2F)c(OC2CCCC2)c1` [Compound 1207, 3-(cyclopentyloxy)-4-(N-(3,5-dicyclopropylbenzyl)-2-(N-((4-(trifluoromethyl)pyridin-3-yl)methyl)-(2,3,4,5,6-pentafluoro-phenyl)sulfonamido)acetamido)benzoic acid] are 4.12 to 9.23 h, 0.01 to 316 nM and 10000 to 20000 nM.
Turning to `O=C(O)c1ccc(N(Cc2cc(C3CC3)cc(C3CC3)c2)C(=O)CN(Cc2ccc(F)cc2Cl)S(=O)(=O)c2c(F)c(F)c(F)c(F)c2F)c(OC2CCCC2)c1` [Compound 1208, 4-(2-(N-(2-chloro-4-fluorobenzyl)-(2,3,4,5,6-pentafluorophenyl)sulfon-amido)-N-(3,5-dicyclopropylbenzyl)acetamido)-3-(cyclopentyloxy) benzoic acid], the half-life at 25 μM with glutathione (GSH) fell in the range of 9.23 to 1670 h. Moreover, the IC50 in the series with MV4-11 cells was 0.01 to 316 nM; in series [1] it was 10000 to 20000 nM.
On the same counts, the results for `O=C(O)c1ccc(N(Cc2cc(C3CC3)cc(N3CCCC3)c2)C(=O)CN(Cc2cnccc2C(F)(F)F)S(=O)(=O)c2c(F)c(F)c(F)c(F)c2F)c(OC2CCCC2)c1` [Compound 1209, 3-(cyclopentyloxy)-4-(N-(3-cyclopropyl-5-(pyrrolidin-1-yl)benzyl)-2-(N-((4-(trifluoromethyl)pyridin-3-yl)methyl)-(2,3,4,5,6-pentafluoro-phenyl)sulfonamido)acetamido)benzoic acid] are 9.23 to 1670 h, 0.01 to 316 nM and 10000 to 20000 nM.
In the same order, the values of `CN(C)c1cc(C(=O)O)ccc1N(Cc1cc(C2CC2)cc(C2CC2)c1)C(=O)CN(Cc1cnccc1C(F)(F)F)S(=O)(=O)c1c(F)c(F)c(F)c(F)c1F` [Compound 1210, 4-(N-(3,5-dicyclopropylbenzyl)-2-(N-((4-(trifluoromethyl)pyridin-3-yl)methyl)-(2,3,4,5,6-pentafluoro-phenyl)sulfonamido)acetamido)-3-(dimethylamino) benzoic acid] are 0.00167 to 2.37 h, 0.01 to 316 nM and 1 to 10000 nM.
